The numbers were not newly measured in patent US11504411B1, “Herbal dietary supplement supporting healthy immune function” (Progressing Bodies, Inc., priority 2021, dated 2022), which cites them from elsewhere.

Data set [1] deals with norovirus. The conditions noted are these: over the course of less than one hour.
Data set [2] concerns herpes simplex virus. The following applies: within just one hour.

For `Cc1ccc(C(C)C)cc1O` [carvacrol], the inactivation of norovirus entry in data set [1] was “inactivated norovirus”. Moreover, the “herpes simplex virus inactivated” value in data set [2] was 90%.
As to `CC1=C(/C=C/C(C)=C/C=C/C(C)=C/C=C/C=C(C)/C=C/C=C(C)/C=C/C2=C(C)C(=O)[C@@H](O)CC2(C)C)C(C)(C)C[C@H](O)C1=O` [astaxanthin], the “singlet oxygen quenching strength relative to CoQ10” value (versus CoQ10) is 800 times. For the setting “versus green tea catechins”, the “singlet oxygen quenching strength relative to green tea catechins” value is 550 times. Moreover, the “singlet oxygen quenching strength relative to vitamin C” value (versus vitamin C) is 6,000 times.
`Cc1ccc(C(C)C)c(O)c1` [thymol]: in data set [2], the “herpes simplex virus inactivated” value was 90%.
